Data: ChEMBL document CHEMBL2203267, “Synthesis, antioxidant and antimicrobial activity of novel vanillin derived piperidin-4-one oxime esters: preponderant role of the phenyl ester substituents on the piperidin-4-one oxime core” (Bioorg Med Chem Lett, 2012)

Assays:
Pseudomonas aeruginosa [1] = test: Antibacterial activity against Pseudomonas aeruginosa ATCC 27853 at 1000 ug/mL after 24 hrs by well plate method; format: functional; conditions: ATCC 27853, 24 h, read-out: DIZ
Staphylococcus aureus [2] = test: Antibacterial activity against Staphylococcus aureus ATCC 25923 at 500 ug/mL after 24 hrs by well plate method; format: functional; conditions: ATCC 25923, 24 h, read-out: DIZ
Staphylococcus aureus [3] = test: Antibacterial activity against Staphylococcus aureus ATCC 25923 at 1000 ug/mL after 24 hrs by well plate method; format: functional; conditions: ATCC 25923, 24 h, read-out: DIZ
Escherichia coli [4] = test: Antibacterial activity against Escherichia coli ATCC 25922 at 500 ug/mL after 24 hrs by well plate method; format: functional; conditions: ATCC 25922, 24 h, read-out: DIZ
Escherichia coli [5] = test: Antibacterial activity against Escherichia coli ATCC 25922 at 1000 ug/mL after 24 hrs by well plate method; format: functional; conditions: ATCC 25922, 24 h, read-out: DIZ
[6] = Antioxidant activity assessed as ABTS+ radical scavenging activity after 30 mins by UV-vis spectrophotometric analysis; format: functional
Liver microsomes = test: Antioxidant activity in Wistar rat liver microsomes assessed as inhibition of lipid peroxidation after 60 mins by UV-vis spectrophotometric analysis; format: functional, Microsome
[7] = test system: Radical scavenging activity; test: Antioxidant activity assessed as DPPH radical scavenging activity after 20 mins by UV-vis spectrophotometric analysis; format: functional
Candida albicans [8] = test: Antifungal activity against Candida albicans MTCC 3017 at 500 ug/mL after 72 hrs by well plate method; format: functional; conditions: MTCC 3017, 72 h, read-out: DIZ
Candida albicans [9] = test: Antifungal activity against Candida albicans MTCC 3017 at 1000 ug/mL after 72 hrs by well plate method; format: functional; conditions: MTCC 3017, 72 h, read-out: DIZ
[10] = Antifungal activity against Chrysosporium keratinophilum MTCC 2827 at 500 ug/mL after 72 hrs by well plate method; format: functional
[11] = Antifungal activity against Chrysosporium keratinophilum MTCC 2827 at 1000 ug/mL after 72 hrs by well plate method; format: functional
Aspergillus flavus [12] = test: Antifungal activity against Aspergillus flavus MTCC 3306 at 500 ug/mL after 72 hrs by well plate method; format: functional; conditions: MTCC 3306, 72 h, read-out: DIZ
Aspergillus flavus [13] = test: Antifungal activity against Aspergillus flavus MTCC 3306 at 1000 ug/mL after 72 hrs by well plate method; format: functional; conditions: MTCC 3306, 72 h, read-out: DIZ
Pseudomonas aeruginosa [14] = test: Antibacterial activity against Pseudomonas aeruginosa ATCC 27853 at 500 ug/mL after 24 hrs by well plate method; format: functional; conditions: ATCC 27853, 24 h, read-out: DIZ

SMILES	zone of inhibition at 1000 µg/mL (Pseudomonas aeruginosa [1]) [mm]	zone of inhibition at 500 µg/mL (Staphylococcus aureus [2]) [mm]	zone of inhibition at 1000 µg/mL (Staphylococcus aureus [3]) [mm]	zone of inhibition at 500 µg/mL (Escherichia coli [4]) [mm]	zone of inhibition at 1000 µg/mL (Escherichia coli [5]) [mm]	IC50 [6] [µM]	IC50 (Liver microsomes) [µM]	IC50 [7] [µM]	zone of inhibition at 500 µg/mL (Candida albicans [8]) [mm]	zone of inhibition at 1000 µg/mL (Candida albicans [9]) [mm]	inhibition zone (IZ) [10] [mm]	inhibition zone (IZ) [11] [mm]	zone of inhibition at 500 µg/mL (Aspergillus flavus [12]) [mm]	zone of inhibition at 1000 µg/mL (Aspergillus flavus [13]) [mm]	zone of inhibition at 500 µg/mL (Pseudomonas aeruginosa [14]) [mm]
COc1cc(C2CC(=NOC(=O)c3cccc(O)c3)CC(c3ccc(O)c(OC)c3)N2C)ccc1O (configuration not stated)	5	5	7	6	7	16.5	25.3	15.6	1	3	1	2	1	2	3
COc1cc(C2CC(=NOC(=O)c3ccc(F)cc3)CC(c3ccc(O)c(OC)c3)N2C)ccc1O (configuration not stated)	16	13	15	13	18	141	140	133	18	20	14	12	13	17	13
COc1cc(C2CC(=NOC(=O)c3ccc(Br)cc3)CC(c3ccc(O)c(OC)c3)N2C)ccc1O (configuration not stated)	9	7	9	7	11	108	112	103	8	9	5	7	5	6	7
COc1cc(C2CC(=NOC(=O)c3cc(OC)c(OC)c(OC)c3)CC(c3ccc(O)c(OC)c3)N2C)ccc1O (configuration not stated)	5	4	6	4	5	53	61	40	3	3	3	6	4	3	3
COc1cc(C2CC(=NOC(=O)c3ccc([N+](=O)[O-])cc3)CC(c3ccc(O)c(OC)c3)N2C)ccc1O (configuration not stated)	8	5	8	4	8	79	82	76	7	6	4	5	3	4	5
COc1cc(C2CC(=NOC(=O)c3cc(O)c(O)c(O)c3)CC(c3ccc(O)c(OC)c3)N2C)ccc1O (configuration not stated)	4	4	6	5	7	11.8	16.1	10	6	8	3	4	2	4	3
OC(Cn1cncn1)(Cn1cncn1)c1ccc(F)cc1F [FLUCONAZOLE]									20	22	16	17	12	14	
COc1ccc(C(=O)ON=C2CC(c3ccc(O)c(OC)c3)N(C)C(c3ccc(O)c(OC)c3)C2)cc1 (configuration not stated)	4	2	4	2	3	33	40	28	5	7	4	4	5	6	3
COc1ccc(C(=O)ON=C2CC(c3ccc(O)c(OC)c3)N(C)C(c3ccc(O)c(OC)c3)C2)c(OC)c1 (configuration not stated)	6	3	5	4	6	41	52	32	4	6	4	5	4	5	6
COc1cc(C2CC(=NOC(=O)c3ccccc3O)CC(c3ccc(O)c(OC)c3)N2C)ccc1O (configuration not stated)	4	5	5	4	6	15.9	24.1	14.8	2	6	4	6	3	4	3
COc1cc(C2CC(=NOC(=O)c3ccccc3)CC(c3ccc(O)c(OC)c3)N2C)ccc1O (configuration not stated)	2	3	4	2	3	156	165	141	2	3	2	3	1	2	1
COc1cc(C2CC(=NOC(=O)c3ccc(O)cc3)CC(c3ccc(O)c(OC)c3)N2C)ccc1O (configuration not stated)	3	4	6	4	5	15.1	22.5	14.2	2	2	2	3	12	1	2
COc1cc(C2CC(=NOC(=O)c3cc(O)cc(O)c3)CC(c3ccc(O)c(OC)c3)N2C)ccc1O (configuration not stated)	5	5	5	5	4	12.3	17.2	10.8	3	3	2	1	1	2	4
CN[C@@H]1[C@H](O[C@H]2[C@H](O[C@H]3[C@H](O)[C@@H](O)[C@H](N=C(N)N)[C@@H](O)[C@@H]3N=C(N)N)O[C@@H](C)[C@]2(O)C=O)O[C@@H](CO)[C@H](O)[C@H]1O [STREPTOMYCIN]	16	12	15	12	18										13
COc1cc(C2CC(=NOC(=O)c3ccc(Cl)cc3)CC(c3ccc(O)c(OC)c3)N2C)ccc1O (configuration not stated)	15	9	13	12	17	112	121	110	16	19	12	10	12	15	12
COc1cc(C2CC(=NO)CC(c3ccc(O)c(OC)c3)N2C)ccc1O (configuration not stated)	1	0	1	0	1	158	167	144	0	1	1	1	0	1	0
